Measured values published in PMC6855212, “Antibacterial activity of synthetic 1,3‐bis(aryloxy)propan‐2‐amines against Gram‐positive bacteria” (MicrobiologyOpen, 2019).
Converted amounts (≈) assume the structure as drawn. “And” between values parts separate entries of the source, which are not always exact repeats. Equal values may be shown once. Read-outs that look alike come from different tables or passages of the source.

What was measured:
MRSA Strain 6154 [1] = test: MBC, plating of wells without growth; type: cell-based; settings: Staphylococcus aureus
Protocol: (§1) After incubation at 35°C for 24 hr, the colonies were counted and the percentage of inhibition was calculated. MBC is defined as the lowest compound's concentration that inhibits at least 99.9% of the bacterial cell count compared to nontreated viability control (Clinical and Laboratory Standards Institute, 1999).

S. pyogenes ATCC 19615 = test: MBC, plating of wells without growth; type: cell-based; settings: Streptococcus pyogenes, ATCC19615; at least 99.9% inhibition of cell count
Protocol: as §1

MRSA Strain 5749 [2] = test: MBC, plating of wells without growth; type: cell-based; settings: Staphylococcus aureus
Protocol: as §1

MRSA Strain 5912 [3] = test: MBC, plating of wells without growth; type: cell-based; settings: Staphylococcus aureus
Protocol: as §1

S. aureus ATCC 29212 = test: MBC, plating of wells without growth; type: cell-based; settings: Staphylococcus aureus, ATCC29212; at least 99.9% inhibition of cell count
Protocol: as §1

MRSA Strain 6613 [4] = test: MBC, plating of wells without growth; type: cell-based; settings: Staphylococcus aureus
Protocol: as §1

MRSA strains [5] = test: MBC, MRSA strains taken together; type: cell-based, Staphylococcus aureus; settings: concentrations tested (up to 10 μg/ml)
Protocol: as §1

[6] = tested on: Gram‐positive bacteria (E. faecalis, S. aureus and S. pyogenes); test: MIC, broth microdilution, Gram‐positive bacteria taken together; type: cell-based; settings: Staphylococcus aureus; over different bacterial strains, including MRSA where stated; read-out: MIC against Gram‐positive bacteria, summary
Protocol: (§2) The antibacterial activity of the compounds was evaluated using the broth microdilution method in 96‐well microplates according to the Clinical and Laboratory Standards Institute protocol (CLSI, 2017). First, synthetic compounds were diluted in Mueller Hinton broth (MHB; Oxoid, Thermo Scientific, UK) to concentrations ranging from 20 to 2.5 μg/ml. The same volume of a bacterial suspension containing 10^5 CFU/ml was added to each of the previous solutions, resulting in final compound concentrations from 10 to 1.25 μg/ml. […] All conditions were tested in triplicate and the results shown are representative of three independent assays.

[7] = Cytotoxicity, MTT reduction assay; type: cell-based; settings: African green monkey, 48 hr
Protocol: (§3) The cytotoxicity of active compounds to mammalian cells was assessed using the MTT reduction assay (Mosmann, 1983). Vero and BSC‐40 cells were seeded in 96‐well plates (8 × 10^4 cells per well) and incubated at 37°C and 5% CO2 atmosphere. After 24 hr of incubation, 200 μL of fresh medium containing a serial dilution of compounds (10–1.25 μg/ml) were added to the plates. After 48 hr of incubation in the same conditions, 100 μL of MTT solution in MEM or DMEM (5 mg/ml) was added to each well and incubated for 3 hr at 37°C and 5% CO2 atmosphere. The medium was removed and 100 μL of DMSO was used to solubilize formazan crystals. Absorbance at 570 nm of each well was read using a spectrophotometer (VersaMax, Molecular Devices).

MRSA strains [8] = test: MIC, broth microdilution, MRSA strains taken together; type: cell-based; settings: Staphylococcus aureus; over the six MRSA strains (CPD18: four out of six); read-out: MIC against MRSA strains
Protocol: as §2

MRSA Strain 6154 [9] = test: MIC, broth microdilution; type: cell-based; settings: Staphylococcus aureus, clinical strain, read-out: MIC MRSA Strain 6154
Protocol: as §2

[10] = tested on: Streptococcus pyogenes ATCC 19615; test: MIC, broth microdilution; type: cell-based; settings: for MIC: Streptococcus pyogenes, ATCC19615; for Antibacterial activity in initial screening, S. pyogenes: concentration of 10 μg/ml
Protocol: as §2

MRSA Strain 5749 [11] = test: MIC, broth microdilution; type: cell-based; settings: Staphylococcus aureus, clinical strain, read-out: MIC MRSA Strain 5749
Protocol: as §2

MRSA Strain 5912 [12] = test: MIC, broth microdilution; type: cell-based; settings: Staphylococcus aureus, clinical strain, read-out: MIC MRSA Strain 5912
Protocol: as §2

MRSA Strain 6613 [13] = test: MIC, broth microdilution; type: cell-based; settings: Staphylococcus aureus, clinical strain, read-out: MIC MRSA Strain 6613
Protocol: as §2

[14] = tested on: Staphylococcus aureus ATCC 29212; test: MIC, broth microdilution; type: cell-based; settings: for MIC: Staphylococcus aureus, ATCC29212; for Antibacterial activity in initial screening, S. aureus: concentration of 10 μg/ml
Protocol: as §2

E. faecalis ATCC 29213 = test: MBC, plating of wells without growth; type: cell-based; settings: Enterococcus faecalis, ATCC29213; at least 99.9% inhibition of cell count
Protocol: as §1

MRSA Strain 6100 [15] = test: MBC, plating of wells without growth; type: cell-based; settings: Staphylococcus aureus
Protocol: as §1

MRSA ATCC 43300 [16] = test: MBC, plating of wells without growth; type: cell-based; settings: Staphylococcus aureus
Protocol: as §1

MRSA Strain 6100 [17] = test: MIC, broth microdilution; type: cell-based; settings: Staphylococcus aureus, clinical strain, — = no activity up to 10 μg/ml, read-out: MIC MRSA Strain 6100
Protocol: as §2

MRSA ATCC 43300 [18] = test: MIC, broth microdilution; type: cell-based; settings: Staphylococcus aureus; — = no activity up to 10 μg/ml; read-out: MIC MRSA ATCC 43300
Protocol: as §2

[19] = tested on: Enterococcus faecalis ATCC 29213; test: MIC, broth microdilution; type: cell-based; settings: for MIC: Enterococcus faecalis, ATCC29213; for Antibacterial activity in initial screening, E. faecalis: concentration of 10 μg/ml
Protocol: as §2

Vero cells = test: Cytotoxicity, MTT reduction assay; type: cell-based; settings: bacterial strain not stated
Protocol: as §3

BSC‐40 cells = test: Cytotoxicity, MTT reduction assay; type: cell-based; settings: BSC‐40; bacterial strain not stated
Protocol: as §3

[20] = BSC-40 cells, BSC‐40, MTT, read-out: CC50
[21] = BSC-40 cells, BSC‐40, MTT, read-out: CC50 ± SD
[22] = Vero cells, MTT, read-out: CC50
[23] = Vero cells, MTT, read-out: CC50 ± SD
[24] = 24 hr, 35°C, read-out: MIC Streptococcus pyogenes ATCC 19615
[25] = read-out: MIC against S. pyogenes
[26] = 24 hr, 35°C, read-out: MIC Staphylococcus aureus ATCC 29212
[27] = read-out: MIC against S. aureus
[28] = 24 hr, 35°C, — = no activity up to 10 μg/ml, read-out: MIC Enterococcus faecalis ATCC 29213
[29] = read-out: MIC against E. faecalis

## NC(COc1ccc(Cl)cc1)COc1ccc(Cl)cc1 [CPD18]
MRSA Strain 6154 [1]
  MBC: > 28.7 µM
S. pyogenes ATCC 19615
  MBC: > 28.7 µM
MRSA Strain 5749 [2]
  MBC: > 28.7 µM
MRSA Strain 5912 [3]
  MBC: > 28.7 µM
S. aureus ATCC 29212
  MBC: > 28.7 µM
MRSA Strain 6613 [4]
  MBC: > 28.7 µM
MRSA strains [5]
  Bactericidal activity against MRSA strains: no bactericidal activity was observed
[6]
  MIC: 10 µg/mL and 28.7 µM
[7]; [20]
  CC50 at 48 h: 5.73 ± 0.18 mg/L
[7]; [21]
  CC50 at 48 h: 16.4 ± 0.52 µM
[7]; [22]
  CC50 at 48 h: 5.99 ± 0.09 mg/L
[7]; [23]
  CC50 at 48 h: 17.2 ± 0.26 µM
MRSA strains [8]
  MIC: 10 µg/mL and 28.7 µM
MRSA Strain 6154 [9]
  MIC: 28.7 µM (≈ 8.95 µg/mL)
[10]; [24]
  MIC: 28.7 µM
[10]; [25]
  MIC: 10 mg/L
[10]
  Antibacterial activity in initial screening, S. pyogenes: showed activity
MRSA Strain 5749 [11]
  MIC: 28.7 µM (≈ 8.95 µg/mL)
MRSA Strain 5912 [12]
  MIC: 28.7 µM (≈ 8.95 µg/mL)
MRSA Strain 6613 [13]
  MIC: 28.7 µM (≈ 8.95 µg/mL)
[14]; [26]
  MIC: 28.7 µM
[14]; [27]
  MIC: 10 mg/L
[14]
  Antibacterial activity in initial screening, S. aureus: showed activity

## NC(COc1cccc2ccccc12)COc1cccc2ccccc12 [CPD20]
MRSA Strain 6154 [1]
  MBC: 26.3 µM (≈ 9.04 µg/mL)
E. faecalis ATCC 29213
  MBC: 26.3 µM (≈ 9.04 µg/mL)
MRSA Strain 6100 [15]
  MBC: 6.58 µM (≈ 2.26 µg/mL)
S. pyogenes ATCC 19615
  MBC: 6.58 µM (≈ 2.26 µg/mL)
MRSA Strain 5749 [2]
  MBC: 6.58 µM (≈ 2.26 µg/mL)
MRSA Strain 5912 [3]
  MBC: 6.58 µM (≈ 2.26 µg/mL)
S. aureus ATCC 29212
  MBC: 26.3 µM (≈ 9.04 µg/mL)
MRSA ATCC 43300 [16]
  MBC: 13.2 µM (≈ 4.52 µg/mL)
MRSA Strain 6613 [4]
  MBC: 6.58 µM (≈ 2.26 µg/mL)
[6]
  MIC: 2.5 µg/mL to 5 µg/mL and 6.58 µM to 13.2 µM
[7]; [20]
  CC50 at 48 h: 2.5 ± 0.75 mg/L
[7]; [21]
  CC50 at 48 h: 6.58 ± 1.97 µM
[7]; [22]
  CC50 at 48 h: 3.79 ± 0.6 mg/L
[7]; [23]
  CC50 at 48 h: 9.98 ± 1.58 µM
MRSA strains [8]
  MIC: 2.5 µg/mL and 6.58 µM
MRSA Strain 6154 [9]
  MIC: 6.58 µM (≈ 2.26 µg/mL)
[10]; [24]
  MIC: 6.58 µM
[10]; [25]
  MIC: 2.5 mg/L
[10]
  Antibacterial activity in initial screening, S. pyogenes: inhibited the growth
MRSA Strain 6100 [17]
  MIC: 6.58 µM (≈ 2.26 µg/mL)
MRSA Strain 5749 [11]
  MIC: 6.58 µM (≈ 2.26 µg/mL)
MRSA Strain 5912 [12]
  MIC: 6.58 µM (≈ 2.26 µg/mL)
MRSA ATCC 43300 [18]
  MIC: 6.58 µM (≈ 2.26 µg/mL)
[19]; [28]
  MIC: 13.2 µM
[19]; [29]
  MIC: 5 mg/L
[19]
  Antibacterial activity in initial screening, E. faecalis: inhibited the growth
MRSA Strain 6613 [13]
  MIC: 6.58 µM (≈ 2.26 µg/mL)
[14]; [26]
  MIC: 6.58 µM
[14]; [27]
  MIC: 2.5 mg/L
[14]
  Antibacterial activity in initial screening, S. aureus: inhibited the growth

## Cl.NC(COc1ccc(Cl)c(Cl)c1)COc1ccc(Cl)c(Cl)c1 [CPD22, 1,3‐Bis(3,4‐dichlorophenoxy)propan‐2‐aminium chloride]
MRSA Strain 6154 [1]
  MBC: > 23.9 µM
E. faecalis ATCC 29213
  MBC: > 23.9 µM
MRSA Strain 6100 [15]
  MBC: 23.9 µM
S. pyogenes ATCC 19615
  MBC: 23.9 µM
MRSA Strain 5749 [2]
  MBC: 5.99 µM
MRSA Strain 5912 [3]
  MBC: 5.99 µM
S. aureus ATCC 29212
  MBC: 12 µM
MRSA ATCC 43300 [16]
  MBC: 12 µM
MRSA Strain 6613 [4]
  MBC: 12 µM
[6]
  MIC: 2.5 µg/mL to 5 µg/mL and 5.99 µM to 12 µM
Vero cells
  Selective Index (SI), higher value: 2.19
BSC‐40 cells
  Selective Index (SI), higher value: 1.77
[7]; [21]
  CC50 at 48 h: 10.6 ± 3.16 µM
[7]; [22]
  CC50 at 48 h: 5.47 ± 1.89 mg/L
[7]; [23]
  CC50 at 48 h: 13.1 ± 4.53 µM
MRSA strains [8]
  MIC: 2.5 µg/mL to 5 µg/mL and 5.99 µM to 12 µM
other
  melting point: 224.1 to 225.6 °C
MRSA Strain 6154 [9]
  MIC: 5.99 µM
[10]; [24]
  MIC: 5.99 µM
[10]; [25]
  MIC: 2.5 mg/L
[10]
  Antibacterial activity in initial screening, S. pyogenes: inhibited the growth
MRSA Strain 6100 [17]
  MIC: 5.99 µM
MRSA Strain 5749 [11]
  MIC: 5.99 µM
MRSA Strain 5912 [12]
  MIC: 5.99 µM
MRSA ATCC 43300 [18]
  MIC: 12 µM
[19]; [28]
  MIC: 12 µM
[19]; [29]
  MIC: 5 mg/L
[19]
  Antibacterial activity in initial screening, E. faecalis: inhibited the growth
MRSA Strain 6613 [13]
  MIC: 12 µM
[14]; [26]
  MIC: 12 µM
[14]; [27]
  MIC: 5 mg/L
[14]
  Antibacterial activity in initial screening, S. aureus: inhibited the growth
